Here are results for 17 compounds from ChEMBL document CHEMBL1153145, “Novel lead for potent inhibitors of breast cancer resistance protein (BCRP)” (Bioorg Med Chem Lett, 2010).

Molecules are shown by their SMILES.

Experiment [1] concerns the target Multidrug resistance-associated protein 1 (Homo sapiens, UniProt P33527). Kind of experiment: Inhibition of MRP1 assessed as calcein AM accumulation by fluorescence assay.
Experiment [2] addresses T1, Broad substrate specificity ATP-binding cassette transporter ABCG2 (Homo sapiens, UniProt Q9UNQ0).
T1 sequence (Q9UNQ0 whole entry): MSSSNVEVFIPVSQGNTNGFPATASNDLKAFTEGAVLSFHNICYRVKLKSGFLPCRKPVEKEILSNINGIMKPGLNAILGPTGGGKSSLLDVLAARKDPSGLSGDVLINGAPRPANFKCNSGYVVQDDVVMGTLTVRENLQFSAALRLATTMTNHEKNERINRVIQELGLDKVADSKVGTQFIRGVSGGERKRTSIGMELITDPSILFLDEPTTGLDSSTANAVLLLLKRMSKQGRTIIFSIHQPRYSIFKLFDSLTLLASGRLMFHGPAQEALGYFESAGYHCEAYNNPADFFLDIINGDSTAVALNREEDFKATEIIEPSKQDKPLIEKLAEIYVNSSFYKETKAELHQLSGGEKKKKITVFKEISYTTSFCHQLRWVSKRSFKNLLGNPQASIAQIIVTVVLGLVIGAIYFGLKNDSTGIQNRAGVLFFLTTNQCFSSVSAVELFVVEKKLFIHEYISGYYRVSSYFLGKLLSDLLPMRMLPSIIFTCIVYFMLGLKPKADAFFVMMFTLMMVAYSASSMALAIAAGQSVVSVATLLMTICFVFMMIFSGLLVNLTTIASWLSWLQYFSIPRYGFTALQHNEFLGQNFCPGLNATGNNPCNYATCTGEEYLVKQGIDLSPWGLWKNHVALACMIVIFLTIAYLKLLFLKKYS
The experiment can be described thus: Inhibition of BCRP expressed in MDCK cells by pheophorbide A assay. The experiment is classed as cell-based.

Experiment [3] deals with T1, Broad substrate specificity ATP-binding cassette transporter ABCG2. The experiment can be described thus: Inhibition of BCRP expressed in MCF7 MX cells by Hoechst 33342 staining. It counts as cell-based.

Chain of Multidrug resistance-associated protein 1 (P33527 whole entry): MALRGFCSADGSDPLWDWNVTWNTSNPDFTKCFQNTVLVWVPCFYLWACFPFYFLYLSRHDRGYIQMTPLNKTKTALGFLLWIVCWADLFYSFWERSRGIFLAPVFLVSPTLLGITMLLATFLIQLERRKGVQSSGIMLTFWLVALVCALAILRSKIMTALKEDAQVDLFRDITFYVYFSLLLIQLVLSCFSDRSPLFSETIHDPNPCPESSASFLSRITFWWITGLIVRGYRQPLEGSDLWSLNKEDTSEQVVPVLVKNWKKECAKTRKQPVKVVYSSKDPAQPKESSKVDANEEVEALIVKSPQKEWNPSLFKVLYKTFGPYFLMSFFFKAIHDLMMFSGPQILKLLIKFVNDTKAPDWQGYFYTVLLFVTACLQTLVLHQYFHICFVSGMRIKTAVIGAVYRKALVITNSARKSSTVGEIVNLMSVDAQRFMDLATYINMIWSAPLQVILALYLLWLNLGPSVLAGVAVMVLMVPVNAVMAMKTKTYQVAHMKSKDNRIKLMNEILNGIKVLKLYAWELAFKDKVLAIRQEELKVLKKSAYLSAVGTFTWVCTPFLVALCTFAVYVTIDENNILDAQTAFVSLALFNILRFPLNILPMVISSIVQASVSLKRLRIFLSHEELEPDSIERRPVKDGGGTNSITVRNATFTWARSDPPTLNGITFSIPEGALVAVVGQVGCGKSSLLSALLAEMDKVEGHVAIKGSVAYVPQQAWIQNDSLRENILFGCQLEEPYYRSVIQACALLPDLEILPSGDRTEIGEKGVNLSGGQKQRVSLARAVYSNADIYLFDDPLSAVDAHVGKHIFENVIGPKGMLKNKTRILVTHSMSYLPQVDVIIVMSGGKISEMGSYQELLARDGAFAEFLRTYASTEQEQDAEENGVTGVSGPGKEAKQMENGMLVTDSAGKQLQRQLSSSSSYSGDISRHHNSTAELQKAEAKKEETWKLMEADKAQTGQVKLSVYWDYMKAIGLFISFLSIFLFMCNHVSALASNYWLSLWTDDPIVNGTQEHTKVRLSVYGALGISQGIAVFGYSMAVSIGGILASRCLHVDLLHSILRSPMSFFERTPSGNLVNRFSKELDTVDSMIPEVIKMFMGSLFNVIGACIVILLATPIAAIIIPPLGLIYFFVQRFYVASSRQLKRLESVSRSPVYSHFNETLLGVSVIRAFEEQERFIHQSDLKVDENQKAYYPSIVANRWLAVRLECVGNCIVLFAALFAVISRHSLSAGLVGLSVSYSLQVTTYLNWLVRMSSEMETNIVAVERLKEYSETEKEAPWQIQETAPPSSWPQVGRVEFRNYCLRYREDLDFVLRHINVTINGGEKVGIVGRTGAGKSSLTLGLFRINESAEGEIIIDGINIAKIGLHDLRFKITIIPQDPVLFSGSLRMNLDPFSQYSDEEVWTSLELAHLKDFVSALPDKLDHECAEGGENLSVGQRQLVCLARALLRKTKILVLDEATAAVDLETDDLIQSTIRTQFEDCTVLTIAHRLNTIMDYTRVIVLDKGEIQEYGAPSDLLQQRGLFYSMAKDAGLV

With `COc1ccc(C(=O)Nc2ccccc2C(=O)Nc2ccc(CCN3CCc4cc(OC)c(OC)cc4C3)cc2)cc1OC`, the IC50 (as a rule, the concentration at which inhibition is half-maximal) was greater than 20 µM in experiment [1], 0.86 µM in experiment [2] and 0.93 µM in experiment [3].

With `O=C(Nc1ccc(CCN2CCc3ccccc3C2)cc1)c1ccccc1[N+](=O)[O-]`, the results for the IC50 in experiment [2] and in experiment [3] were 45.7 µM and 51.3 µM, respectively.

On to `Nc1ccccc1C(=O)Nc1ccc(CCN2CCc3ccccc3C2)cc1`, for which the values for the IC50 in experiment [2] and in experiment [3] were 20.9 µM and 17.8 µM, respectively.

As to `COc1cc2c(cc1OC)CN(CCc1ccc(NC(=O)c3ccc(N)cc3)cc1)CC2`, the IC50 in experiment [2] stood at 98.2 µM; in experiment [3], 219 µM.

For `COc1cc2c(cc1OC)CN(CCc1ccc(NC(=O)c3cc(OC)c(OC)cc3NC(=O)c3cnc4ccccc4c3)cc1)CC2`, the IC50 was 0.85 µM in experiment [2] and 0.68 µM in experiment [3].

Consider `COc1cc2c(cc1OC)CN(CCc1ccc(NC(=O)c3ccccc3N)cc1)CC2`, for which the IC50 was found to be 20.7 µM in experiment [2] and 32.4 µM in experiment [3].

Regarding `COc1cc2c(cc1OC)CN(CCc1ccc(NC(=O)c3ccccc3[N+](=O)[O-])cc1)CC2`, the IC50 in experiment [2] is 40 µM; in experiment [3] it was 77.6 µM.

Regarding `COc1cc2c(cc1OC)CN(CCc1ccc(NC(=O)Nc3ccccc3N)cc1)CC2`, the IC50 in experiment [2] was determined as 58.4 µM; in experiment [3], 66.1 µM.

With `Nc1ccccc1NC(=O)Nc1ccc(CCN2CCc3ccccc3C2)cc1`, the IC50 in experiment [2] was found to be 74.1 µM; in experiment [3], 102 µM.

In the case of `COc1cc2c(cc1OC)CN(CCc1ccc(NC(=O)Nc3ccc(N)cc3)cc1)CC2`, the IC50 in experiment [2] is 46.4 µM; in experiment [3], 74.1 µM.

As to `COc1cc2c(cc1OC)CN(CCc1ccc(NC(=O)Nc3ccc([N+](=O)[O-])cc3)cc1)CC2`, the IC50 in experiment [2] was 2.61 µM; in experiment [3] it was 3.89 µM.

For `COc1cc2c(cc1OC)CN(CCc1ccc(NC(=O)Nc3ccccc3[N+](=O)[O-])cc1)CC2`, the IC50 was determined as 9.08 µM in experiment [2] and 10.2 µM in experiment [3].

Consider `O=C(Nc1ccc(CCN2CCc3ccccc3C2)cc1)Nc1ccccc1[N+](=O)[O-]`, for which the IC50 in experiment [2] came to 8.71 µM; in experiment [3], 6.76 µM.

For `COc1cc2c(cc1OC)CN(CCc1ccc(NC(=O)c3ccc([N+](=O)[O-])cc3)cc1)CC2`, the 50% inhibitory concentration (IC50) in experiment [2] was 4.38 µM; in experiment [3] it was 6.92 µM.

In the case of `COc1cc2c(cc1OC)CN(CCc1ccc(NC(=O)c3ccccc3NC(=O)Nc3ccc([N+](=O)[O-])cc3)cc1)CC2`, the IC50 in experiment [1] was greater than 20 µM; in experiment [2], 0.5 µM; in experiment [3] it was 0.54 µM.

In the case of `COc1cc2c(cc1OC)CN(CCc1ccc(NC(=O)c3ccccc3NC(=O)c3ccc([N+](=O)[O-])cc3)cc1)CC2`, the figures for the IC50 in experiment [1], in experiment [2] and in experiment [3] were greater than 20 µM, 0.63 µM and 0.69 µM, respectively.

`COc1ccc(C(=O)Nc2ccccc2NC(=O)Nc2ccc(CCN3CCc4cc(OC)c(OC)cc4C3)cc2)cc1OC`: the IC50 was 6.98 µM in experiment [2] and 10.2 µM in experiment [3].
